Patent publication EP1510220B1 (priority 1993, dated 1994)
Like-named read-outs stand apart in the source and are kept apart here.

Tests used:
TGF-beta = TGF-beta activity in medium conditioned on rat vascular smooth muscle cells (MvLu cell assay); type: cell-based; settings: cells treated for 96 hours in 10% FCS
Protocol: Assays for TGF-Beta. The TGF-beta activity present in medium conditioned on various cells was determined by DNA synthesis assay on mink lung […] (MvLu) cells; a modification of the assay described in Danielpour et al., J. Cell. Physiol., 138: 79-83, 1989. MvLu cells were subcultured at 1:5 dilution in DMEM + 10% FCS. After 24 hours, the medium was replaced with the conditioned medium to be tested in the absence or presence of the neutralizing antiserum to TGF-beta at 10 micrograms/ml. DNA synthesis during a 1 hour pulse of [^3H]-thymidine (5 microcuries/ml) was determined 23 hours after addition of the test medium. TGF-beta activity was calculated as the proportion of the inhibition of DNA synthesis which was reversed in the presence of neutralizing antibody, using a standard curve to convert the inhibition values into quantities of TGF-beta. The TGF-beta1 standards and conditioned media both contained 10% FCS in DMEM.

TGF-beta1 mRNA = assay: cells; settings: Rattus norvegicus, 24 h, read-out: increase of TGF-beta1 mRNA
[1] = system: Rat vascular smooth muscle cells; assay: Proliferation of rat vascular smooth muscle cells by cell counting; type: cell-based
Protocol: Cell culture, DNA synthesis assay and cell counting. Rat vascular smooth muscle cells were cultured after enzymatic dispersion of the aortic media from 12-17 week old Wistar rats as described in Grainger et al., Biochem. J., 277: 145-151, 1991. When the cells reached confluence (after about 6 days) the cells were released with trypsin/EDTA (available from Gibco) and diluted 1:2 in Dulbecco's modification of Eagle's medium (DMEM; available from ICN/Flow) supplemented with 100 U/ml penicillin and 10% fetal calf serum (FCS). The cells were then replated on tissue culture plastic (available from ICN/Flow) at approximately 1 x 10^4 cells/cm^2. The cells were subcultured repeatedly in this way when confluence was attained (about every 4 days), and the cells were used between passages 6 and 12.
Cells were prepared for counting by hemocytometer from triplicate culture dishes as described in Grainger et al., Biochem. J., 277:145-151, 1991. Cells were also counted by direct microscopic observation of gridded culture dishes. The grids were scored into the plastic on the inner surface, so that the cells could not migrate into or out of the area being counted during the experiment. Cells in each of four squares in two separate wells were counted at each time point. All cell counting experiments were repeated on at least three separate cultures.
A stock solution of tamoxifen (5 mM; available from ICI Pharmaceuticals) was made up in 10% ethanol (EtOH) and diluted in DMEM and 10% FCS to give the final concentration. The effects of each tamoxifen concentration were compared with the effects observed in control wells containing the same final concentration of the ethanol vehicle. Recombinant TGF-beta (available from Amersham International) was dissolved in 25 mM Tris/Cl to give a 5 microgram/ml stock solution and sterile filtered through a Spinnex Tube (such as a Centrex Disposable Microfilter Unit available from Rainin Instrument Company, Inc., Woburn, MA). Neutralizing antiserum to TGF-beta (BDA19; available from R & D Systems) was reconstituted in sterile MilliQ water (available from Millipore Corporation, Bedford, MA). At 10 micrograms/ml, this antibody completely abolished the activity of 10 ng/ml recombinant TGF-beta on subcultured (8th passage) vascular smooth muscle cells.

[2] = system: Vascular smooth muscle cells

Molecule: CC/C(=C(\c1ccccc1)c1ccc(OCCN(C)C)cc1)c1ccccc1 [tamoxifen, trans-2-[4-(1,2-diphenyl-1-butenyl)phenoxy]-N,N-dimethylethylamine]
- increase of TGF-beta activity in the medium (TGF-beta): > 50 fold
- fold induction at 10 µM (TGF-beta1 mRNA): ~10
- cells that had divided by 64 hours ([1]; 33 micromolar): more than 90%
- time taken for 50% of the cells to divide after stimulation by serum ([1]; 33 micromolar, n=3, vehicle 35 +/-3 hours): 54 ± 2 h
- onset of increase in cell number after serum stimulation ([1]; 33 micromolar, time lapse photomicroscopy): no significant increase in cell number in the presence of tamoxifen until after 48 hours
- rate of proliferation ([1]; 50 micromolar with 10 micrograms/ml neutralizing antiserum against TGF-beta, 10% FCS): proliferated at the same rate as control cells
- reduction of the increase in cell number ([1]; 50 micromolar, 96 hours following the addition of serum, n=3, 5760 min, 50 µM): 66% +/-5.2
- inhibition at 50 µM ([1]; Rattus norvegicus, 50 micromolar, 96 hours following the addition of serum, n=3, read-out: reduction of the increase in cell number): 66%
- IC (maximal) ([1]; Rattus norvegicus, DMEM + 10% FCS, read-out: concentrations giving maximal inhibition of the rate of proliferation): > 33 µM
- IC50 ([1]; rat ED VSMC, read-out: half-maximal inhibition of proliferation): 2 to 5 µM

Molecule: cytochalasin B
- morphological cytotoxicity grade ([2]; 0.01ug, 24 hrs + 24 hrs): 0
- morphological cytotoxicity grade ([2]; 0.01ug, 24 hrs + 48 hrs): 0
- morphological cytotoxicity grade ([2]; 0.01ug, 24 hrs + 72 hrs): 0
- morphological cytotoxicity grade ([2]; 0.01ug, 24 hrs + 96 hrs): 0
- morphological cytotoxicity grade ([2]; 0.01ug, 24 hrs + 120 hrs): 0
- morphological cytotoxicity grade ([2]; 0.01ug, Continuous 6 hrs): 0
- morphological cytotoxicity grade ([2]; 0.01ug, Continuous 24 hrs (r11, 24 hr exposure series)): 0
- morphological cytotoxicity grade ([2]; 0.01ug, Continuous 24 hrs (r17, long term continuous series)): 0
- morphological cytotoxicity grade ([2]; 0.01ug, Continuous 48 hrs): 0
- morphological cytotoxicity grade ([2]; 0.01ug, Continuous 72 hrs): 0
- morphological cytotoxicity grade ([2]; 0.01ug, Continuous 96 hrs): 0
- morphological cytotoxicity grade ([2]; 0.01ug, Continuous 120 hrs): 0
- morphological cytotoxicity grade ([2]; 0.01ug, Continuous 168 hrs): 0
- morphological cytotoxicity grade ([2]; 0.01ug, Continuous 216 hrs): 0
- morphological cytotoxicity grade ([2]; 0.01ug, Continuous 264 hrs): 0
- morphological cytotoxicity grade ([2]; 0.1 ug, 5 min + 2 hrs): 0
- morphological cytotoxicity grade ([2]; 0.1 ug, 5 min + 6 hrs): 0
- morphological cytotoxicity grade ([2]; 0.1 ug, 5 min + 24 hrs): 0
- morphological cytotoxicity grade ([2]; 0.1 ug, 5 min + 48 hrs): 0
- morphological cytotoxicity grade ([2]; 0.1 ug, 5 min + 72 hrs): 0
- morphological cytotoxicity grade ([2]; 0.1 ug, 5 min + 96 hrs): 0
- morphological cytotoxicity grade ([2]; 0.1 ug, 5 min + 120 hrs): 0
- morphological cytotoxicity grade ([2]; 0.1 ug, 24 hrs + 24 hrs): 0.5
- morphological cytotoxicity grade ([2]; 0.1 ug, 24 hrs + 48 hrs): 1
- morphological cytotoxicity grade ([2]; 0.1 ug, 24 hrs + 72 hrs): 0.5
- morphological cytotoxicity grade ([2]; 0.1 ug, 24 hrs + 96 hrs): 0
- morphological cytotoxicity grade ([2]; 0.1 ug, 24 hrs + 120 hrs): 0
- morphological cytotoxicity grade ([2]; 0.1 ug, Continuous 6 hrs): 0
- morphological cytotoxicity grade ([2]; 0.1 ug, Continuous 24 hrs (r11, 24 hr exposure series)): 1
- morphological cytotoxicity grade ([2]; 0.1 ug, Continuous 24 hrs (r17, long term continuous series)): 0
- morphological cytotoxicity grade ([2]; 0.1 ug, Continuous 48 hrs): 1
- morphological cytotoxicity grade ([2]; 0.1 ug, Continuous 72 hrs): 1
- morphological cytotoxicity grade ([2]; 0.1 ug, Continuous 96 hrs): 2
- morphological cytotoxicity grade ([2]; 0.1 ug, Continuous 120 hrs): 1
- morphological cytotoxicity grade ([2]; 0.1 ug, Continuous 168 hrs): 1
- morphological cytotoxicity grade ([2]; 0.1 ug, Continuous 216 hrs): 1
- morphological cytotoxicity grade ([2]; 0.1 ug, Continuous 264 hrs): 1
- morphological cytotoxicity grade ([2]; 1 ug, 5 min + 2 hrs): 0
- morphological cytotoxicity grade ([2]; 1 ug, 5 min + 6 hrs): 1
- morphological cytotoxicity grade ([2]; 1 ug, 5 min + 24 hrs): 0.5
- morphological cytotoxicity grade ([2]; 1 ug, 5 min + 48 hrs): 1
- morphological cytotoxicity grade ([2]; 1 ug, 5 min + 72 hrs): 1
- morphological cytotoxicity grade ([2]; 1 ug, 5 min + 96 hrs): 1
- morphological cytotoxicity grade ([2]; 1 ug, 5 min + 120 hrs): 1
- morphological cytotoxicity grade ([2]; 1 ug, 24 hrs + 24 hrs): 3
- morphological cytotoxicity grade ([2]; 1 ug, 24 hrs + 48 hrs): 4
- morphological cytotoxicity grade ([2]; 1 ug, 24 hrs + 72 hrs): 4
- morphological cytotoxicity grade ([2]; 1 ug, 24 hrs + 96 hrs): 4
- morphological cytotoxicity grade ([2]; 1 ug, 24 hrs + 120 hrs): 4
- morphological cytotoxicity grade ([2]; 1 ug, Continuous 6 hrs): 3
- morphological cytotoxicity grade ([2]; 1 ug, Continuous 24 hrs (r11, 24 hr exposure series)): 3
- morphological cytotoxicity grade ([2]; 1 ug, Continuous 24 hrs (r17, long term continuous series)): 3
- morphological cytotoxicity grade ([2]; 1 ug, Continuous 48 hrs): 3
- morphological cytotoxicity grade ([2]; 1 ug, Continuous 72 hrs): 3
- morphological cytotoxicity grade ([2]; 1 ug, Continuous 96 hrs): 3
- morphological cytotoxicity grade ([2]; 1 ug, Continuous 120 hrs): 3
- morphological cytotoxicity grade ([2]; 1 ug, Continuous 168 hrs): 4
- morphological cytotoxicity grade ([2]; 1 ug, Continuous 216 hrs): 4
- morphological cytotoxicity grade ([2]; 1 ug, Continuous 264 hrs): 4
- cytotoxicity grade ([2]; 1 µg/ml, anti-migration/contraction effective dose, grade 1 = minimal): 1
- morphological cytotoxicity grade ([2]; 10 ug, 5 min + 2 hrs): 0.5
- morphological cytotoxicity grade ([2]; 10 ug, 5 min + 6 hrs): 4
- morphological cytotoxicity grade ([2]; 10 ug, 5 min + 24 hrs): 4
- morphological cytotoxicity grade ([2]; 10 ug, 5 min + 48 hrs): 4
- morphological cytotoxicity grade ([2]; 10 ug, 5 min + 72 hrs): 4.5
- morphological cytotoxicity grade ([2]; 10 ug, 5 min + 96 hrs): 5
- morphological cytotoxicity grade ([2]; 10 ug, 5 min + 120 hrs): 5
